Source: article PMC10165104, “The immunosuppressive effects and mechanisms of loureirin B on collagen-induced arthritis in rats” (Frontiers in Immunology, 2023)

Molecular target: T1, Kv1.3 (mKv1.3) voltage-gated potassium channel (Mus musculus, UniProt P16390)
T1 construct: gene Kcna3
Assay: whole-cell voltage clamp of mKv1.[…] expressed in HEK293T cells
Type: cell-based

T1 sequence (P16390 whole entry): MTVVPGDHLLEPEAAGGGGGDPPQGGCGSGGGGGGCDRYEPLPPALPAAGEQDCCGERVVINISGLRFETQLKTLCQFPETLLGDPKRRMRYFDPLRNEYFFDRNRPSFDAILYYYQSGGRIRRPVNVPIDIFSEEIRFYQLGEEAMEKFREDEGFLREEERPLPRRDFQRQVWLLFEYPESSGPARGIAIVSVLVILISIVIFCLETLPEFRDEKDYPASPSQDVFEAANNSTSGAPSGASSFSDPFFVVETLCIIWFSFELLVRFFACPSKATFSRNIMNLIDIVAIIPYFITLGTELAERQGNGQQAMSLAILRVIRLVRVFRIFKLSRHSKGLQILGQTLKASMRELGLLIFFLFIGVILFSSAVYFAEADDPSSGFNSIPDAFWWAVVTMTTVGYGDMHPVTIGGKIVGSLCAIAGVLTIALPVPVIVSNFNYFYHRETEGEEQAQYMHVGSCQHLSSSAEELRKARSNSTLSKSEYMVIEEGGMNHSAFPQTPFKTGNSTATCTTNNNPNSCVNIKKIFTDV

- IC50: 6.33 ± 0.49 µM
Structure (SMILES): COc1cc(OC)c(CCC(=O)c2ccc(O)cc2)c(OC)c1 [LrB, Loureirin B]
